Assay results as given in patent publication US10894788B2, “Inhibitors of cyclin-dependent kinases” (Kinnate Biopharma Inc., priority 2018, dated 2021).

Target: CDK12 wt/CycK (Homo sapiens (Human), UniProt Q9NYV4)
Assay: Radiometric protein kinase assay (33PanQinase Activity Assay), Assay Condition A (thiol containing conditions)
Type: biochemical
Conditions: thiol containing conditions (1.2 mM DTT), ATP 0.3 μM; read-out: CDK12 IC50 Condition A
Outline: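 Recombinant human kinase incubated with [33P]ATP, substrate and compound (10 concentrations, 1×10^−04M to 3×10^−09M, singlicate, 1% DMSO) under thiol-containing buffer conditions, 60 min at 30 °C. 33Pi incorporation counted by scintillation; residual activity normalised to no-inhibitor and no-kinase controls, IC50 derived.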

Sequence of CDK12 wt/CycK (Q9NYV4 whole entry): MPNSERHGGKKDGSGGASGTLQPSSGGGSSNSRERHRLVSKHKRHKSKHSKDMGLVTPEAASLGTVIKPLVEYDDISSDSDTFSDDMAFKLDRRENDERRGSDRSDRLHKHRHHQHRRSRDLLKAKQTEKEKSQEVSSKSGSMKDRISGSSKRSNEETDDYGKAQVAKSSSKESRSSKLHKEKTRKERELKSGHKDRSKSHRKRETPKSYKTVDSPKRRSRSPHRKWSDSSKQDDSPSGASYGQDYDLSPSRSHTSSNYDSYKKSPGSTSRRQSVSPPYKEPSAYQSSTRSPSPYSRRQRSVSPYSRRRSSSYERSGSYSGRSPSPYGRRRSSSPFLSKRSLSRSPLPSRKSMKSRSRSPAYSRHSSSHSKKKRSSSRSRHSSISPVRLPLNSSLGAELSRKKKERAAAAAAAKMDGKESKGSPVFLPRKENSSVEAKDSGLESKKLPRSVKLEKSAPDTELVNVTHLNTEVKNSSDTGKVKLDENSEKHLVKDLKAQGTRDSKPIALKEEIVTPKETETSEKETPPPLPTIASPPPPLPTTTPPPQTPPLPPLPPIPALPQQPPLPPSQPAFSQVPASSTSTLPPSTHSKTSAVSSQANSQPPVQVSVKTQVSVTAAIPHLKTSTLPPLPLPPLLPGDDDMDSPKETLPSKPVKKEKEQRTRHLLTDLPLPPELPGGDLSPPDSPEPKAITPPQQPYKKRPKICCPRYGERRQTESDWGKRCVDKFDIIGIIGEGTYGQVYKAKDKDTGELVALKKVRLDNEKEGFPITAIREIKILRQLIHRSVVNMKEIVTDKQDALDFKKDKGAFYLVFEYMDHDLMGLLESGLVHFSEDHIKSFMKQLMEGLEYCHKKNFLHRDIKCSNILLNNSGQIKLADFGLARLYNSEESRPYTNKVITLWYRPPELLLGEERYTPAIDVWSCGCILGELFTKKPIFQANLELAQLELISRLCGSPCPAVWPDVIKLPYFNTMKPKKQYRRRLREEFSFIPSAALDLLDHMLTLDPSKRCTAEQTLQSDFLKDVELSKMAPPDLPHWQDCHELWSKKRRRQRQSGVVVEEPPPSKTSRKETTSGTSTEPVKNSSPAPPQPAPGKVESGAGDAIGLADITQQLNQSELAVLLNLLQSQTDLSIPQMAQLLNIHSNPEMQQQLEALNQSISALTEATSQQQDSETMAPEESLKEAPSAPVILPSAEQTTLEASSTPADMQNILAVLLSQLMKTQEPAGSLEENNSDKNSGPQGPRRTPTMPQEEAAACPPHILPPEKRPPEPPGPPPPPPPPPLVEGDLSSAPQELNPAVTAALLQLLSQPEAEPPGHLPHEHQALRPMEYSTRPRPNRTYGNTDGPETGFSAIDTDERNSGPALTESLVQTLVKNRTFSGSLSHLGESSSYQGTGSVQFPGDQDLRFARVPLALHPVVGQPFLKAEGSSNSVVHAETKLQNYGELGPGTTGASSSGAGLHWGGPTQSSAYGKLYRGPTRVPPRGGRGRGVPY
Sequence of CDK12 wt/CycK (O75909 whole entry partner): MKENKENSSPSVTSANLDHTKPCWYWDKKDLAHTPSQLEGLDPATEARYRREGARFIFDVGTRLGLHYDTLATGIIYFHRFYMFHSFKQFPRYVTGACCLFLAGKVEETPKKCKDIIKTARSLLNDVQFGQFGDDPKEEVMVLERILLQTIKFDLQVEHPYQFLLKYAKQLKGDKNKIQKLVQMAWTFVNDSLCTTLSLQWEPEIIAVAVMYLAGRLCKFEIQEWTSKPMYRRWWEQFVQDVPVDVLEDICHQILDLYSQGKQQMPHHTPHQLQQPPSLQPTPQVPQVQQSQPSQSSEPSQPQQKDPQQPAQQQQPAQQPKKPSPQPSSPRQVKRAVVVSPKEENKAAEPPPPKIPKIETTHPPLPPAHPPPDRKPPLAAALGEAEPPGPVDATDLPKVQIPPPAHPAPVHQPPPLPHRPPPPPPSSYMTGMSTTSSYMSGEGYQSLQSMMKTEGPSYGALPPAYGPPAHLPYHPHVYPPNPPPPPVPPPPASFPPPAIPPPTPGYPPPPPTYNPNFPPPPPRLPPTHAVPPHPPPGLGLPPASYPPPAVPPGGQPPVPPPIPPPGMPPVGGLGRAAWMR

COc1nc(N[C@@H]2CCN(C(=O)c3ccc(NC(=O)/C=C/CN4CC[C@H](F)C4)cn3)C2)ncc1Cl [Example 171, (E)-N-(6-((R)-3-((5-chloro-4-methoxypyrimidin-2-yl)amino)pyrrolidine-1-carbonyl)pyridin-3-yl)-4-((S)-3-fluoropyrrolidin-1-yl)but-2-enamide]
IC50: 0.1 to 1 µM

COc1nc(N[C@@H]2CCN(C(=O)c3ccc(NC(=O)/C=C/CN4CCCC(F)(F)C4)cn3)C2)ncc1Cl [Example 172, (R,E)-N-(6-(3-((5-chloro-4-methoxypyrimidin-2-yl)amino)pyrrolidine-1-carbonyl)pyridin-3-yl)-4-(3,3-difluoropiperidin-1-yl)but-2-enamide]
IC50: 0.1 to 1 µM

COc1nc(N[C@@H]2CCN(C(=O)c3ccc(NC(=O)/C=C/CN4CCCC(F)(F)C4)cc3)C2)ncc1Cl [Example 173, (R,E)-N-(4-(3-((5-chloro-4-methoxypyrimidin-2-yl)amino)pyrrolidine-1-carbonyl)phenyl)-4-(3,3-difluoropiperidin-1-yl)but-2-enamide]
IC50: 0.1 to 1 µM

COc1nc(N[C@@H]2CCN(C(=O)c3ccc(NC(=O)/C=C/CN4CCOCC4)cn3)C2)ncc1Cl [Example 174, (R,E)-N-(6-(3-((5-chloro-4-methoxypyrimidin-2-yl)amino)pyrrolidine-1-carbonyl)pyridin-3-yl)-4-morpholinobut-2-enamide]
IC50: 0.1 to 1 µM

COc1nc(N[C@@H]2CCN(C(=O)c3ccc(NC(=O)/C=C/CN4CCC[C@H](F)C4)cn3)C2)ncc1Cl [Example 175, (E)-N-(6-((R)-3-((5-chloro-4-methoxypyrimidin-2-yl)amino)pyrrolidine-1-carbonyl)pyridin-3-yl)-4-((S)-3-fluoropiperidin-1-yl)but-2-enamide]
IC50: 0.1 to 1 µM

COc1nc(N[C@@H]2CCN(C(=O)c3ccc(NC(=O)/C=C/CN4CCC[C@@H](F)C4)cn3)C2)ncc1Cl [Example 176, (E)-N-(6-((R)-3-((5-chloro-4-methoxypyrimidin-2-yl)amino)pyrrolidine-1-carbonyl)pyridin-3-yl)-4-((R)-3-fluoropiperidin-1-yl)but-2-enamide]
IC50: 0.1 to 1 µM

COc1nc(N[C@@H]2CCN(C(=O)c3ccc(NC(=O)/C=C/CN4CCC[C@H](F)C4)cc3)C2)ncc1Cl [Example 177, (E)-N-(4-((R)-3-((5-chloro-4-methoxypyrimidin-2-yl)amino)pyrrolidine-1-carbonyl)phenyl)-4-((S)-3-fluoropiperidin-1-yl)but-2-enamide]
IC50: 0.1 to 1 µM

COc1nc(N[C@@H]2CCN(C(=O)c3ccc(NC(=O)/C=C/CN4CCC[C@@H](F)C4)cc3)C2)ncc1Cl [Example 178, (E)-N-(4-((R)-3-((5-chloro-4-methoxypyrimidin-2-yl)amino)pyrrolidine-1-carbonyl)phenyl)-4-((R)-3-fluoropiperidin-1-yl)but-2-enamide]
IC50: 0.1 to 1 µM

COc1nc(N[C@@H]2CCN(C(=O)c3ccc(NC(=O)/C=C/CN4CC[C@@H](F)C4)nc3)C2)ncc1Cl [Example 179, (E)-N-(5-((R)-3-((5-chloro-4-methoxypyrimidin-2-yl)amino)pyrrolidine-1-carbonyl)pyridin-2-yl)-4-((R)-3-fluoropyrrolidin-1-yl)but-2-enamide]
IC50: 0.1 to 1 µM

C=CC(=O)Nc1ccc(C(=O)N2C[C@H](Nc3ncc(Cl)c(OC)n3)C[C@@H]2C)cc1 [Example 180, N-(4-((2S,4R)-4-((5-chloro-4-methoxypyrimidin-2-yl)amino)-2-methylpyrrolidine-1-carbonyl)phenyl)acrylamide]
IC50: < 0.1 µM

C#Cc1cnc(N[C@@H]2CCN(C(=O)c3ccc(NC(=O)C=C)cc3)C2)nc1 [Example 181, (R)—N-(4-(3-((5-ethynylpyrimidin-2-yl)amino)pyrrolidine-1-carbonyl)phenyl)acrylamide]
IC50: < 0.1 µM

C#Cc1cnc(N[C@@H]2CCN(C(=O)c3ccc(NC(=O)C=C)cc3)C2)nc1OC [Example 182, (R)—N-(4-(3-((5-ethynyl-4-methoxypyrimidin-2-yl)amino)pyrrolidine-1-carbonyl)phenyl)acrylamide]
IC50: < 0.1 µM
